Test results reported in patent publication US20240335548A1, “MACROMOLECULES” (Starpharma Pty Ltd, priority 2011, published 2024).
pIC50: −log10 of the molar value. Read-outs that look alike come from different tables or passages of the source.

Tests used:
[1] = tested on: A2058 (Melanoma); experiment: Cell growth inhibition SRB assay; format: cell-based
Procedure: (§1) All solutions were prepared in saline (except docetaxel which was made in ethanol). All solutions were stored at −20° C. All values were based on the equivalent drug loading.

[2] = tested on: MDA-MB-231 (Breast); experiment: Cell growth inhibition SRB assay; format: cell-based
Procedure: as §1

[3] = tested on: PC-3 (Prostate); experiment: Cell growth inhibition SRB assay; format: cell-based
Procedure: as §1

[4] = tested on: A549 (Lung); experiment: Cell growth inhibition SRB assay; format: cell-based
Procedure: as §1

[5] = tested on: HT29 (Colon); experiment: Cell growth inhibition SRB assay; format: cell-based
Procedure: as §1

[6] = tested on: ES2 (Ovarian); experiment: Cell growth inhibition SRB assay; format: cell-based
Procedure: as §1

[7] = tested on: DU145 (Prostate); experiment: Cell growth inhibition SRB assay; format: cell-based
Procedure: as §1

[8] = tested on: MCAS (Ovarian); experiment: Cell growth inhibition SRB assay; format: cell-based
Procedure: as §1

[9] = tested on: H460 (Lung); experiment: Cell growth inhibition SRB assay; format: cell-based
Procedure: as §1

[10] = tested on: HCT116 (Colon); experiment: Cell growth inhibition SRB assay; format: cell-based
Procedure: as §1

[11] = Plasma stability study: docetaxel release in mouse plasma; format: in vitro ADME; conditions: 37° C.
Procedure: Protocol: To 0.5 mL of mouse plasma was added 0.1 mL of dendrimer solution (2 mg/mL, drug equivalent in saline). The mixtures were vortexed (30 s) then incubated at 37° C. At various timepoints (0.5, 2.5, 4.5, 22 hours) 0.1 mL aliquots were removed and added to 0.2 mL ACN. The resulting mixtures were vortexed (30 s), centrifuged (10 min, 4° C.) filtered and analysed by HPLC (C8, 3.9×150 mm, 5 μm, wavelength=243 nm, 10 μL injections, gradient: 40-80% ACN/H2O (1-7 min), 80% ACN (7-9 min), 80-40% ACN (9-11 min), 40% ACN (11-15 min), 10 mM ammonium formate, pH 7.40) which when compared against a standard (2 mg//mL) provided the concentration of free docetaxel in the sample.

[12] = tested on: MDA-MB-231 tumours; experiment: Xenograft MDA-MB-231 efficacy study; format: in vivo, female Balb/c nude mice
[13] = Water solubility study on drug loaded dendrimers; format: physicochemical; conditions: for Water solubility of dendrimer: deionised water, until full dissolution; for Equivalent drug solubility on dendrimer: water solubility x % drug loading/100
Procedure: Protocol: To 30 mg of dendrimer (freeze-dried from water) was added 100 μL of deionised water. After mixing for 10 minutes, additional aliquots of water (10-30 μL per addition) were added with vortexing and incubation for 10 mins until full dissolution was obtained. This amount is represented in Table 1 as the water solubility of the dendrimer. The equivalent drug solubility is determined by multiplying the % drug loading/100 and is represented in Table 1 (column 3) as Equivalent drug solubility on dendrimer. Finally, the fold increase is obtained by dividing the Equivalent drug solubility on dendrimer by the solubility of the drug and is represented in Table 1 (column 4).

[14] = day 16, one day after final dose
Procedure: The 20 mice were randomised into 5 groups of four mice (mean tumour volume ˜90 mm^3). Animals were eye bled in the morning for baseline blood cell counts and then drug dosing commenced later that day (day 1). […] A second eye bleed was performed on day 11 (Table 7 A-C). Mice were killed one day following the final drug dose (day 16).

[15] = tested on: A2780; experiment: IC50 using the MTT assay; format: cell-based; conditions: 72 hours
Procedure: (§2) The IC50 using the MTT assay [Wilson, Anne P. (2000). “Chapter 7: Cytotoxicity and viability”. In Masters, John R. W. Animal Cell Culture: A Practical Approach. Vol. 1 (3rd ed.). Oxford: Oxford University Press] was determined against various cancer cell lines after 72 hours.

[16] = tested on: MCF-7; experiment: IC50 using the MTT assay; format: cell-based; conditions: 72 hours
Procedure: as §2

[17] = tested on: HCT-116; experiment: IC50 using the MTT assay; format: cell-based; conditions: 72 hours
Procedure: as §2

[18] = tested on: HT-29; experiment: IC50 using the MTT assay; format: cell-based; conditions: 72 hours
Procedure: as §2

[19] = tested on: DU-145; experiment: IC50 using the MTT assay; format: cell-based; conditions: 72 hours
Procedure: as §2

[20] = tested on: PC-3; experiment: IC50 using the MTT assay; format: cell-based; conditions: 72 hours
Procedure: as §2

[21] = tested on: H460; experiment: IC50 using the MTT assay; format: cell-based; conditions: 72 hours
Procedure: as §2

[22] = tested on: A549; experiment: IC50 using the MTT assay; format: cell-based; conditions: 72 hours
Procedure: as §2

[23] = Particle sizing using Dynamic Light Scattering; format: physicochemical
[24] = tested on: MDA-MB-231 tumour xenografts; experiment: MDA-MB-231 mouse xenograft breast cancer model, SPL9048 study
Procedure: (§3) References to amounts dosed in mg/kg for the dendrimeric compounds are to the amounts of cabazitaxel that may theoretically be released by the dendrimers.
(§4) Each of the dendrimers was pre-weighed in glass vials and stored at 20° C. until use, and dissolved in saline immediately prior to dosing. Cabazitaxel was purchased from a commercial supplier.
(§5) Female Balb/c nude mice (age 7 weeks) were inoculated subcutaneously on the flank with 3.5×10^6 MDA-MB-231 cells in PBS:Matrigel (1:1). Mice were weighed and tumours measured twice weekly using electronic callipers. Tumour volume (mm^3) was calculated as length (mm)/2×width (mm)^2.
Mice received a small dish containing a food supplement (mixed with food dust) daily. The experiment was ended on day 113 or earlier if an ethical endpoint was met.

[25] = Toxicity studies in rats (neutropenia, hematology, microscopic changes); conditions: 2.5 mg/kg
Text: References to amounts dosed in mg/kg for the dendrimeric compound are to the amounts of cabazitaxel that may theoretically be released by the dendrimer.

[26] = Pharmacokinetic analysis, plasma half-life after IV administration; conditions: tritium labelled, IV administration into rats
Procedure: The plasma half-lives of tritium labelled docetaxel and the construct from Experiment 8 (c) (prepared using tritium labelled docetaxel) after IV administration into rats were determined (Kaminskas, L. M., Boyd, B. J., Karellas, P., Krippner, G. Y., Lessene, R., Kelly, B and Porter, C. J. H. “The Impact of Molecular Weight and PEG Chain Length on the Systemic Pharmacokinetics of PEGylated Poly-L-Lysine Dendrimers” Molecular Pharm. 2008, 5, 449-463).

[27] = free cabazitaxel, triphasic PK model; cited from earlier work
[28] = tested on: MDA-MB-231 tumour xenografts; experiment: MDA-MB-231 mouse xenograft breast cancer model, SPL8996, SPL9005 and SPL9006 study
Procedure: as §3, §4, §5
Mice received a small dish containing a food supplement (mixed with food dust) daily. The experiment was ended on day 150 or earlier if an ethical endpoint was met.

[29] = Day 1, i.v. day 1, 8, 15, docetaxel 15 mg/kg, Exp 3 (b) 20 mg/kg, Exp 8 (c) […] mg/kg

Compound: BHALys[Lys]32[α-DGA-DTX]32[ε-PEG1100]32 [Example 3 (b)]
- GI50 [1]: 2 nM
- GI50 [2]: 0.5 nM
- GI50 [3]: 4.5 nM
- GI50 [4]: 3.5 nM
- GI50 [5]: 2 nM
- GI50 [6]: 4 nM
- GI50 [7]: 4 nM
- GI50 [8]: 7 nM
- GI50 [9]: 8 nM
- GI50 [10]: 1 nM
- Docetaxel release in plasma ([11]; 0.5 hours): 8.5 percentage of total docetaxel
- Docetaxel release in plasma ([11]; 2.5 hours): 32.5 percentage of total docetaxel
- Docetaxel release in plasma ([11]; 22 hours): 73 percentage of total docetaxel
- Mean tumour Volumne mm^3 (sd) [12, 29]: 111.74 (6.65), mm^3
- Mean tumour Volumne mm^3 (sd) ([12]; Day 9, same doses): 84.02 (6.33), mm^3
- Mean tumour Volumne mm^3 (sd) ([12]; Day 19, same doses): 28.26 (1.91), mm^3
- Mean tumour Volumne mm^3 (sd) ([12]; Day 29, same doses): 10.46 (0.5), mm^3
- Mean tumour Volumne mm^3 (sd) ([12]; Day 40, same doses): 5.92 (1.31), mm^3
- Mean tumour Volumne mm^3 (sd) ([12]; Day 61, same doses): 4 (0), mm^3
- Mean tumour Volumne mm^3 (sd) ([12]; Day 81, same doses): 0.5 (0), mm^3
- Mean tumour Volumne mm^3 (sd) ([12]; Day 100, same doses): 0.5 (0), mm^3
- Mean tumour Volumne mm^3 (sd) ([12]; Day 120, same doses): 0.37 (0.12), mm^3
- Water solubility of dendrimer [13]: 89 mg/mL
- Equivalent drug solubility on dendrimer [13]: 23 mg/mL
- Mean Tumour Weights (g) (sd) [14]: 0.020 g

Compound: BHALys[Lys]32[α-TDA-DTX]32[ε-PolyPEG2000]32 [Example 19]
- pIC50 [15]: 8.20
- pIC50 [16]: 8.20
- pIC50 [17]: 8.19
- pIC50 [18]: 8.23
- pIC50 [19]: 7.81
- pIC50 [20]: 8.13
- pIC50 [21]: 7.63
- pIC50 [22]: 8.11
- particle size, range of concentration dependent averages [23]: 10.9-15.5 nm
- Water solubility of dendrimer [13]: 477 mg/mL
- Fold increase in drug solubility ([13]; equivalent drug solubility divided by solubility of the drug): 21900
- Equivalent drug solubility on dendrimer [13]: 109 mg/mL

Compound: BHALys[Lys]32[α-DGA-Cabazitaxel]32†[ε-PEG˜2100]32‡ [SPL9048]
- antitumour efficacy (tumour response) ([24]; FIG. 1, i.v. days 1, 8 and 15, SPL-9048 9 and 10 mg/kg): complete tumour regression
- tolerability ([24]; FIG. 2, body weight): overall well tolerated
- survival compared with cabazitaxel ([24]; both doses (9 and 10 mg/kg)): significantly extended survival beyond that of cabazitaxel
- toxicity compared to Jevtana®/cabazitaxel [25]: Reduced toxicity

Compound: BHALys[Lys]32[α-TDA-DTX]32[ε-PEG1100]32 [Example 8 (c)]
- plasma half-life [26]: approximately 30 hour
- GI50 [3]: 9.5 nM
- GI50 [6]: 12 nM
- GI50 [9]: 7 nM
- Docetaxel release in plasma ([11]; 0.5 hours): 4.5 percentage of total docetaxel
- Docetaxel release in plasma ([11]; 2.5 hours): 13.5 percentage of total docetaxel
- Docetaxel release in plasma ([11]; 22 hours): 43 percentage of total docetaxel
- Mean tumour Volumne mm^3 (sd) [12, 29]: 111.73 (6.41), mm^3
- Mean tumour Volumne mm^3 (sd) ([12]; Day 9, same doses): 108.86 (9.31), mm^3
- Mean tumour Volumne mm^3 (sd) ([12]; Day 19, same doses): 30.59 (1.64), mm^3
- Mean tumour Volumne mm^3 (sd) ([12]; Day 29, same doses): 11.58 (1.2), mm^3
- Mean tumour Volumne mm^3 (sd) ([12]; Day 40, same doses): 5.75 (0.92), mm^3
- Mean tumour Volumne mm^3 (sd) ([12]; Day 61, same doses): 4 (0), mm^3
- Mean tumour Volumne mm^3 (sd) ([12]; Day 81, same doses): 0.5 (0), mm^3
- Mean tumour Volumne mm^3 (sd) ([12]; Day 100, same doses): 1.67 (0.74), mm^3
- Mean tumour Volumne mm^3 (sd) ([12]; Day 120, same doses): 16.2 (10.24), mm^3
- Water solubility of dendrimer [13]: 131 mg/mL
- Equivalent drug solubility on dendrimer [13]: 41 mg/mL
- Mean Tumour Weights (g) (sd) [14]: 0.033 g

Compound: CO[C@H]1C(=O)[C@]2(C)[C@@H](OC)C[C@H]3OC[C@@]3(OC(C)=O)[C@H]2[C@H](OC(=O)c2ccccc2)[C@]2(O)C[C@H](OC(=O)[C@H](O)[C@@H](NC(=O)OC(C)(C)C)c3ccccc3)C(C)=C1C2(C)C [cabazitaxel, reference compound]
- initial-phase half-life [27]: 4 min
- intermediate-phase half-life [27]: 2 h
- terminal-phase half-life [27]: 95 h
- tumours reaching an ethical tumour volume endpoint by day 98 ([24]; cabazitaxel 9 mg/kg): 9 of 10
- tumour regrowth evident by day ([24]; cabazitaxel 9 mg/kg, days 1, 8 and 15): ≤ 43 days
- resumption of tumour growth by day ([28]; cabazitaxel 10 mg/kg, days 1, 8 and 22): ≤ 60 days

Compound: BHALys[Lys]32[α-4-HSBA-Cp-DTX]32[ε-PEG1100]32 [Example 4 (c)]
- GI50 ([1]; A2058, 72 hours, equivalent drug loading, average of duplicate): 8 nM
- GI50 ([2]; MDA-MB-231, 72 hours, equivalent drug loading, average of duplicate): 6.5 nM
- GI50 ([3]; PC-3, 72 hours, equivalent drug loading, average of duplicate): 21.5 nM
- GI50 ([4]; A549, 72 hours, equivalent drug loading, average of duplicate): 8.5 nM
- GI50 ([5]; HT29, 72 hours, equivalent drug loading, average of duplicate): 9.5 nM
- GI50 ([6]; ES2, 72 hours, equivalent drug loading, average of duplicate): 8.6 nM
- GI50 ([7]; DU145, 72 hours, equivalent drug loading, average of duplicate): 12 nM
- GI50 ([8]; MCAS, 72 hours, equivalent drug loading, average of duplicate): 20 nM
- GI50 ([9]; H460, 72 hours, equivalent drug loading, average of duplicate): 11 nM
- GI50 ([10]; HCT116, 72 hours, equivalent drug loading, average of duplicate): 9 nM
- Docetaxel release in plasma ([11]; 0.5 hours): 1.5 percentage of total docetaxel
- Docetaxel release in plasma ([11]; 2.5 hours): 10 percentage of total docetaxel
- Docetaxel release in plasma ([11]; 22 hours): 17.5 percentage of total docetaxel
- Water solubility of dendrimer [13]: 109 mg/mL
- Equivalent drug solubility on dendrimer [13]: 22 mg/mL
- Mean Tumour Weights (g) (sd) [14]: 0.079 g

Compound: N3-PEG24-CO(NPN)[Lys]32[α-TDA-Cabazitaxel]32†[ε-PEG˜1100]32‡ [SPL8996]
- tumour regrowth at the conclusion of the study on day 150 ([28]; 28 mg/kg): one tumour in the SPL-8996 group which began to regrow by day 77
